# How the values were obtained:
# [1] = system: PKB Ser473 phosphorylation in Rat1-myr-HA-p110 delta cells; assay: Reverse protein array assay, PKB Ser473 phosphorylation in Rat1-myr-p110 delta cells; format: cell-based; conditions: read-out: p-PKB IC50
# Method in brief: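 Compound exposure lasted 30 min in Rat1 cells bearing membrane-targeted HA-p110 isoforms, using 8 serial concentrations. Arrayed lysates, each spotted at four dilutions, gave relative fluorescence signals for phospho-Ser473 PKB.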
# [2] = Solubility at pH 6.8; format: physicochemical; conditions: pH 6.8, aqueous buffer, thermodynamic from solid; read-out: solubility
# Method in brief: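 Following the procedure of Zhou et al. (2007), compound solubility was determined at pH 6.8.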
Structure (SMILES),IC50 [1] [nM],solubility [2] [µg/mL]
"CCN(C)c1ccc(-c2ccc3ncc4c(c3c2)n(-c2cn(C)nc2C)c(=O)n4C)cn1 [Example 98.1, 1-(1,3-Dimethyl-1H-pyrazol-4-yl)-8-[6-(ethyl-methyl-amino)-pyridin-3-yl]-3-methyl-1,3-dihydro-imidazo[4,5-c]quinolin-2-one]",42,8
"CNc1cc(-c2ccc3ncc4c(c3c2)n(-c2cn(C(C)C)nc2C)c(=O)n4C)cnc1CO [Example 158.2, 8-(6-Hydroxymethyl-5-methylamino-pyridin-3-yl)-1-(1-isopropyl-3-methyl-1H-pyrazol-4-yl)-3-methyl-1,3-dihydro-imidazo[4,5-c]quinolin-2-one]",15,> 458
"COCCOc1cncc(-c2ccc3ncc4c(c3c2)n(-c2cn(C)nc2Cl)c(=O)n4C)c1 [Example 59.2, 1-(3-Chloro-1-methyl-1H-pyrazol-4-yl)-8-[5-(2-methoxy-ethoxy)-pyridin-3-yl]-3-methyl-1,3-dihydro-imidazo[4,5-c]quinolin-2-one]",69,6
"CCn1cc(-n2c(=O)n(C)c3cnc4ccc(-c5cncc(N)c5)cc4c32)c(C)n1 [Example 45.2, 8-(5-Amino-pyridin-3-yl)-1-(1-ethyl-3-methyl-1H-pyrazol-4-yl)-3-methyl-1,3-dihydro-imidazo[4,5-c]quinolin-2-one]",203,10
"Cc1nn(C)c(C)c1-n1c(=O)n(C)c2cnc3ccc(-c4cnc(N)c(Cl)c4)cc3c21 [Example 148.1, 8-(6-Amino-5-chloro-pyridin-3-yl)-3-methyl-1-(1,3,5-trimethyl-1H-pyrazol-4-yl)-1,3-dihydro-imidazo[4,5-c]quinolin-2-one]",90,92
"CCNc1cc(-c2ccc3ncc4c(c3c2)n(-c2cn(C)nc2C)c(=O)n4C)cnc1CO [Example 155.1, 1-(1,3-Dimethyl-1H-pyrazol-4-yl)-8-(5-ethylamino-6-hydroxymethyl-pyridin-3-yl)-3-methyl-1,3-dihydro-imidazo[4,5-c]quinolin-2-one]",19,73
"CNc1ncc(-c2ccc3ncc4c(c3c2)n(-c2cn(C(C)C)nc2C)c(=O)n4C)cc1F [Example 141.3, 8-(5-Fluoro-6-methylamino-pyridin-3-yl)-1-(1-isopropyl-3-methyl-1H-pyrazol-4-yl)-3-methyl-1,3-dihydro-imidazo[4,5-c]quinolin-2-one]",35,5
"Cn1cc(-n2c(=O)n(C)c3cnc4ccc(-c5ccc(CO)nc5)cc4c32)c(Cl)n1 [Example 16.5, 1-(3-chloro-1-methyl-1H-pyrazol-4-yl)-8-(6-hydroxymethyl-pyridin-3-yl)-3-methyl-1,3-dihydro-imidazo[4,5-c]quinolin-2-one]",28,15
"Cc1nn(C)cc1-n1c(=O)n(C)c2cnc3ccc(-c4cnc5ccn(C)c5c4)cc3c21 [Example 129, 1-(1,3-Dimethyl-1H-pyrazol-4-yl)-3-methyl-8-(1-methyl-1H-pyrrolo[3,2-b]pyridin-6-yl)-1,3-dihydro-imidazo[4,5-c]quinolin-2-one]",46,21
"CCNc1cc(-c2ccc3ncc4c(c3c2)n(-c2cn(CC)nc2C)c(=O)n4C)cnc1C [Example 87.3, 8-(5-Ethylamino-6-methyl-pyridin-3-yl)-1-(1-ethyl-3-methyl-1H-pyrazol-4-yl)-3-methyl-1,3-dihydro-imidazo[4,5-c]quinolin-2-one]",7,> 442
"Cc1nn(C(C)C)cc1-n1c(=O)n(C)c2cnc3ccc(-c4cncc(N)c4)cc3c21 [Example 45.3, 8-(5-Amino-pyridin-3-yl)-1-(1-isopropyl-3-methyl-1H-pyrazol-4-yl)-3-methyl-1,3-dihydro-imidazo[4,5-c]quinolin-2-one]",213,4
"CNc1cc(-c2ccc3ncc4c(c3c2)n(-c2cn(C)nc2C)c(=O)n4C)cnc1C [Example 163, 1-(1,3-Dimethyl-1H-pyrazol-4-yl)-3-methyl-8-(6-methyl-5-methylamino-pyridin-3-yl)-1,3-dihydro-imidazo[4,5-c]quinolin-2-one]",12,24
"CNc1cc(-c2ccc3ncc4c(c3c2)n(-c2cn(C)nc2Cl)c(=O)n4C)cnc1CO [Example 158.3, 1-(3-Chloro-1-methyl-1H-pyrazol-4-yl)-8-(6-hydroxymethyl-5-methylamino-pyridin-3-yl)-3-methyl-1,3-dihydro-imidazo[4,5-c]quinolin-2-one]",< 5,3
"CCN(C)c1cc(-c2ccc3ncc4c(c3c2)n(-c2cn(C)nc2C)c(=O)n4C)cnc1C [Example 165, 1-(1,3-Dimethyl-1H-pyrazol-4-yl)-8-[5-(ethyl-methyl-amino)-6-methyl-pyridin-3-yl]-3-methyl-1,3-dihydro-imidazo[4,5-c]quinolin-2-one]",8,> 442
"Cc1nn(C)c(C)c1-n1c(=O)n(C)c2cnc3ccc(-c4ccc(CO)nc4)cc3c21 [Example 16.4, 8-(6-Hydroxymethyl-pyridin-3-yl)-3-methyl-1-(1,3,5-trimethyl-1H-pyrazol-4-yl)-1,3-dihydro-imidazo[4,5-c]quinolin-2-one]",1510,> 414
"Cc1nn(C)cc1-n1c(=O)n(C)c2cnc3ccc(-c4ccnc(OC(C)C)c4)cc3c21 [Example 92, 1-(1,3-Dimethyl-1H-pyrazol-4-yl)-8-(2-isopropoxy-pyridin-4-yl)-3-methyl-1,3-dihydro-imidazo[4,5-c]quinolin-2-one]",,7

# Other lines, results leading:
IC50 [1] [nM],solubility [2] [µg/mL],Structure (SMILES)
24,3,"CCOc1cc(-c2ccc3ncc4c(c3c2)n(-c2cn(C)nc2C)c(=O)n4C)cnc1CC [Example 187, 1-(1,3-Dimethyl-1H-pyrazol-4-yl)-8-(5-ethoxy-6-ethyl-pyridin-3-yl)-3-methyl-1,3-dihydro-imidazo[4,5-c]quinolin-2-one]"
45,8,"CCNc1ncc(-c2ccc3ncc4c(c3c2)n(-c2cn(C)nc2C)c(=O)n4C)cc1COC [Example 206.1, 1-(1,3-Dimethyl-1H-pyrazol-4-yl)-8-(6-ethylamino-5-methoxymethyl-pyridin-3-yl)-3-methyl-1,3-dihydro-imidazo[4,5-c]quinolin-2-one]"
41,21,"Cc1nn(C)cc1-n1c(=O)n(C)c2cnc3ccc(-c4cncc(C5(C#N)CCC5)c4)cc3c21 [Example 221.1, 1-{5-[1-(1,3-Dimethyl-1H-pyrazol-4-yl)-3-methyl-2-oxo-2,3-dihydro-1H-imidazo[4,5-c]quinolin-8-yl]-pyridin-3-yl}-cyclobutanecarbonitrile]"
50,8,"Cc1nn(C)cc1-n1c(=O)n(C)c2cnc3ccc(-c4cncc(N(C)C(C)C)c4)cc3c21 [Example 173, 1-(1,3-Dimethyl-1H-pyrazol-4-yl)-8-[5-(isopropyl-methyl-amino)-pyridin-3-yl]-3-methyl-1,3-dihydro-imidazo[4,5-c]quinolin-2-one]"
13,16,"Cn1cc(-n2c(=O)n(C)c3cnc4ccc(-c5cncc(C(C)(C)C#N)c5)cc4c32)c(Cl)n1 [Example 220.3, 2-{5-[1-(3-Chloro-1-methyl-1H-pyrazol-4-yl)-3-methyl-2-oxo-2,3-dihydro-1H-imidazo[4,5-c]quinolin-8-yl]-pyridin-3-yl}-2-methyl-propionitrile]"
631,217,"CO[C@@H]1CCN(c2ccc(-c3ccc4ncc5c(c4c3)n(-c3cn(C)nc3C)c(=O)n5C)cn2)C1 [Example 213.1, 1-(1,3-Dimethyl-1H-pyrazol-4-yl)-8-[6-((R)-3-methoxy-pyrrolidin-1-yl)-pyridin-3-yl]-3-methyl-1,3-dihydro-imidazo[4,5-c]quinolin-2-one]"
479,> 472,"CCNc1ncc(-c2ccc3ncc4c(c3c2)n(-c2c(C)nn(C)c2C)c(=O)n4C)cc1COC [Example 206.2, 8-(6-Ethylamino-5-methoxymethyl-pyridin-3-yl)-3-methyl-1-(1,3,5-trimethyl-1H-pyrazol-4-yl)-1,3-dihydro-imidazo[4,5-c]quinolin-2-one]"
41,44,"CCc1ncc(-c2ccc3ncc4c(c3c2)n(-c2cn(C)nc2C)c(=O)n4C)cc1O [Example 188, 1-(1,3-Dimethyl-1H-pyrazol-4-yl)-8-(6-ethyl-5-hydroxy-pyridin-3-yl)-3-methyl-1,3-dihydro-imidazo[4,5-c]quinolin-2-one]"
83,133,"CCc1ncc(-c2ccc3ncc4c(c3c2)n(-c2cn(C)nc2C)c(=O)n4C)cc1N [Example 208, 8-(5-Amino-6-ethyl-pyridin-3-yl)-1-(1,3-dimethyl-1H-pyrazol-4-yl)-3-methyl-1,3-dihydro-imidazo[4,5-c]quinolin-2-one]"
24,10,"CNc1cncc(-c2ccc3ncc4c(c3c2)n(-c2cn(C(C)C)nc2C)c(=O)n4C)c1 [Example 180.2, 1-(1-Isopropyl-3-methyl-1H-pyrazol-4-yl)-3-methyl-8-(5-methylamino-pyridin-3-yl)-1,3-dihydro-imidazo[4,5-c]quinolin-2-one]"
26,12,"COCc1ccc(-c2ccc3ncc4c(c3c2)n(-c2cn(C)nc2Cl)c(=O)n4C)cn1 [Example 203, 1-(3-Chloro-1-methyl-1H-pyrazol-4-yl)-8-(6-methoxymethyl-pyridin-3-yl)-3-methyl-1,3-dihydro-imidazo[4,5-c]quinolin-2-one]"
88,243,"CCn1cc(-n2c(=O)n(C)c3cnc4ccc(-c5cnc(COC)c(OC(C)C)c5)cc4c32)c(C)n1 [Example 191.2, 1-(1-Ethyl-3-methyl-1H-pyrazol-4-yl)-8-(5-isopropoxy-6-methoxymethyl-pyridin-3-yl)-3-methyl-1,3-dihydro-imidazo[4,5-c]quinolin-2-one]"

# — patent US20140005163A1 (NOVARTIS AG, priority 2010, published 2014)
